The test system of assay [1] is RM-1 mouse prostate cancer cell lines. Briefly: In vivo mouse xenograft tumor of RM-1 prostate cancer, chlorogenic acid combined with abarelix or degarelix. The protocol:
Test drug: chlorogenic acid, abarelix, degarelix.
Test cell lines: RM-1 mouse prostate cancer cell lines.
(§1) Cells in exponential phase of growth were taken out, digested with trypsin to […], and then cell suspension was prepared by addition of saline.
When the tumor volume in the negative group was about 0.5 cm^3, the experiment was stopped. The mice were sacrificed by cervical dislocation and weighed. The tumors were removed and weighed to calculate the tumor inhibitory rate.

For assay [2], the system named is drug-resistant RM-1 mouse prostate cancer cell lines (abarelix-induced). Briefly: In vivo mouse xenograft tumor of drug-resistant RM-1 prostate cancer, chlorogenic acid combined with abarelix. Conditions: for Tumor weight: x ± s; for inhibitory rate of mouse xenograft tumor of drug-resistant RM-1 prostate cancer (in words): groups and doses as in Table 3. The protocol: Test drug: chlorogenic acid, abarelix.
Test cell lines: RM-1 mouse prostate cancer cell lines. RM-1 cell lines were induced by increasing concentration gradient of aberlix and established by clone and screen. Prior to experiment, cell lines were cultured without drug.
Test animals: Kunming mice, ♂, weight 17-24 g.
Drug-resistant cell lines after removal of drug were adjusted to the concentration of 1×10^7/mL with culture medium, and inoculated under the right anterior armpit of mice at 0.1 ml/mouse.
After the mean diameter of tumor reached 100 mm^3, mice were divided into 4 groups, i.e. abarelix group, chlorogenic acid+abarelix group, chlorogenic acid group, and the negative control group, respectively.
Abarelix group: intraperitoneal injection, once every seven days, 15 mg/kg, two doses in total.
chlorogenic acid+abarelix group: chlorogenic acid was intraperitoneally injected, once every day, 10 mg/kg, continuous administration for 5 days; After withdrawal of chlorogenic acid, abarelix was intraperitoneally injected on the next day, once every 7 days, 15 mg/kg, two doses in total.
Chlorogenic acid group: intraperitoneal injection, once every day, 10 mg/kg, continuous administration for 5 days; after that, saline was intraperitoneally injected, once every day, continuing 10 days.
Negative control group: intraperitoneal injection of saline, once every day, continuing 15 days.
After completion of administration, the experiment was stopped, and mice were sacrificed by cervical dislocation and weighed. The tumors were removed and weighed to calculate the tumor inhibitory rate.

Assay [3] deals with EMT-6 mouse breast cancer cell lines. Briefly: In vivo mouse xenograft tumor of EMT-6 breast cancer, chlorogenic acid combined with fulvestrant. The protocol:
Test drug: chlorogenic acid, fulvestrant.
Test cell lines: EMT-6 mouse breast cancer cell lines.
as §1
Fulvestrant group received drug once by intraperitoneal injection on the next day after inoculation; chlorogenic acid group received drug once every day by intraperitoneal injection from the next day after inoculation, and the drug was successively administrated 15 times; combined medicine group received intraperitoneal injection of fulvestrant once on the next day after inoculation, and intraperitoneal injection of chlorogenic acid once every day from the next day after inoculation; the negative control group received saline by intraperitoneal injection once every day from the next day after inoculation, and saline was continuously given 15 times. When the tumor volume in the negative group was about 0.5 cm^3, the experiment was stopped. The mice were sacrificed by cervical dislocation and weighed. The tumors were removed and weighed to calculate the tumor suppression rate.
(2) If both drugs are combined, Q=E(a+b)/(Ea+Eb−Ea×Eb), in which E(a+b) is the inhibition rate for the combination of two drugs, i.e. the tested combined effect; Ea and Eb is respectively the inhibition rates of two drugs when they are separately used; the denominator (Ea+Eb−Ea×Eb) is the expected combined effect.

Setting [4] is: abarelix 15 mg·kg^−1 i.p. once every seven days, two doses.
Setting [5] is: fulvestrant 40 mg·kg^−1 i.p. once.
The mark [6] stands for this setting: chlorogenic acid 10 mg·kg^−1 i.p. once daily, 15 times.
Where [7] appears, read: chlorogenic acid 20 mg·kg^−1 i.p. once daily, 15 times.
Where [8] appears, read: chlorogenic acid 40 mg·kg^−1 i.p. once daily, 15 times.
The mark [9] stands for this setting: degarelix 30 mg·kg^−1 s.c. once.

Where a SMILES comes first, the peptide text is derived from it. [ ]: non-standard residue; d: D form. The star is where a group is joined. dPhe(4-NHCONH2) = NC(=O)Nc1ccc(C[C@@H](N)C(=O)O)cc1; Dihydroorotyl(S) = O=C1C[C@@H](C(=O)*)NC(=O)N1; dPhe(4-Cl) = N[C@H](Cc1ccc(Cl)cc1)C(=O)O; Phe(4-NH2) = Nc1ccc(C[C@H](N)C(=O)O)cc1; d2Nal = N[C@H](Cc1ccc2ccccc2c1)C(=O)O; Lys(iPr) = CC(C)NCCCC[C@H](N)C(=O)O; NMeY = CN[C@@H](Cc1ccc(O)cc1)C(=O)O; d3Pal = N[C@H](Cc1cccnc1)C(=O)O

For `CC(=O)N[C@H](Cc1ccc2ccccc2c1)C(=O)N[C@H](Cc1ccc(Cl)cc1)C(=O)N[C@H](Cc1cccnc1)C(=O)N[C@@H](CO)C(=O)N(C)[C@@H](Cc1ccc(O)cc1)C(=O)N[C@H](CC(N)=O)C(=O)N[C@@H](CC(C)C)C(=O)N[C@@H](CCCCNC(C)C)C(=O)N1CCC[C@H]1C(=O)N[C@H](C)C(N)=O` [Abarelix, abarelix] (Ac-[d2Nal][dPhe(4-Cl)][d3Pal]S[NMeY][dN]L[Lys(iPr)]P[dA]-NH2), in assay [1] (abarelix 15 mg·kg^−1 i.p. once), the Tumor inhibitory rate is listed as 42.73% and the Tumor weight came out at 0.886 ± 0.521 g. Besides, in assay [2] (setting [4]), the Tumor inhibitory rate came to 4.84% and the Tumor weight stood at 2.339 ± 0.614 g. For the same molecule, the “inhibitory rate of mouse xenograft tumor of drug-resistant RM-1 prostate cancer (in words)” value in assay [2] was “weaker, without obvious suppression effect”.

For `C[C@]12CC[C@@H]3c4ccc(O)cc4C[C@@H](CCCCCCCCC[S+]([O-])CCCC(F)(F)C(F)(F)F)[C@H]3[C@@H]1CC[C@@H]2O` (stereo partly drawn) [Fulvestrant, fulvestrant], in assay [3] (setting [5]), the Tumor inhibitory rate came out at 43.40% and the Tumor weight is on record as 0.746 ± 0.311 g.

As for `O=C(/C=C/c1ccc(O)c(O)c1)O[C@@H]1C[C@](O)(C(=O)O)C[C@@H](O)[C@H]1O` [chlorogenic acid, 3-o-caffeoylquinic acid], the Tumor inhibitory rate in assay [1] (setting [6]) was found to be 24.05%; in assay [1] (setting [7]) it was 27.86%; in assay [1] (setting [8]), 28.57%; in assay [2] (chlorogenic acid 10 mg·kg^−1 i.p. once daily for 5 days), 8.41%; in assay [3] (setting [6]), 31.94%; in assay [3] (setting [7]) it was 36.95%. Further, the Tumor inhibitory rate in assay [3] (setting [8]) came to 42.03%. Also, the Tumor weight was 1.175 ± 0.117 g in assay [1] (chlorogenic acid 10 mg·kg^−1 i.p. once daily, 15 times, Kunming mice); 1.116 ± 0.358 g in assay [1] (chlorogenic acid 20 mg·kg^−1 i.p. once daily, 15 times, Kunming mice); 1.105 ± 0.641 g in assay [1] (chlorogenic acid 40 mg·kg^−1 i.p. once daily, 15 times, Kunming mice); 2.251 ± 0.581 g in assay [2] (chlorogenic acid 10 mg·kg^−1 i.p. once daily for 5 days, then saline 10 days); 0.897 ± 0.346 g in assay [3] (chlorogenic acid 10 mg·kg^−1 i.p. once daily, 15 times, BALB/C-nu mice); 0.831 ± 0.221 g in assay [3] (chlorogenic acid 20 mg·kg^−1 i.p. once daily, 15 times, BALB/C-nu mice). Also, the Tumor weight in assay [3] (chlorogenic acid 40 mg·kg^−1 i.p. once daily, 15 times, BALB/C-nu mice) turned out to be 0.764 ± 0.539 g. Besides, in assay [2], the “inhibitory rate of mouse xenograft tumor of drug-resistant RM-1 prostate cancer (in words)” value is on record as “weaker, without obvious suppression effect”.

As for `CC(=O)N[C@H](Cc1ccc2ccccc2c1)C(=O)N[C@H](Cc1ccc(Cl)cc1)C(=O)N[C@H](Cc1cccnc1)C(=O)N[C@@H](CO)C(=O)N[C@@H](Cc1ccc(NC(=O)[C@@H]2CC(=O)NC(=O)N2)cc1)C(=O)N[C@H](Cc1ccc(NC(N)=O)cc1)C(=O)N[C@@H](CC(C)C)C(=O)N[C@@H](CCCCNC(C)C)C(=O)N1CCC[C@H]1C(=O)N[C@H](C)C(N)=O` [Degarelix, degarelix] (Ac-[d2Nal][dPhe(4-Cl)][d3Pal]S[Phe(4-NH2)](Dihydroorotyl(S))[dPhe(4-NHCONH2)]L[Lys(iPr)]P[dA]-NH2), in assay [1] (setting [9]), the Tumor inhibitory rate amounted to 50.61% and the Tumor weight stood at 0.764 ± 0.218 g.
